Tests used:
[1] = tested on: 6E10+-Aβ plaque; assay: 6E10+-Aβ plaque burden in ADtg mouse brain sections; format: in vivo; conditions: same brain sections (FIG. 11C)
Protocol: ADtg mice (10 months old) received subcutaneous injections of GA [also known as Cop-1 and Copaxone®; 100 μg in phosphate-buffered saline (PBS)] or PBS alone (control group) twice a week for 1 week and then once a week for 8 weeks. For evaluation of innate immune infiltration to the brain by flow cytometry, 10-month-old ADtg mice received subcutaneous injections of GA ([…] in PBS) or PBS alone twice a week for 1 week and then once a week for 3 weeks. At the end of the study, all mice were anaesthetized and then perfused with ice-cold PBS with 0.5 mM EDTA, after which their organs were collected and analyzed or fixed in 2.5% paraformaldehyde (Sigma-Aldrich), and cryoprotected with 30% sucrose for further histological analysis. CD115^+ monocytes from mice donors were isolated as previously reported (Koronyo et al., Brain: a journal of neurology 2015,138:2399-2422). […] For microscopic analysis, we used a Carl Zeiss Axio Imager Z1 fluorescence microscope equipped with ApoTome (Carl Zeiss MicroImaging, Inc.). […] The number and area (μm^2) of OPN+ cells, Iba1^+CD45^hi cells, GFAP^+ cells, Thio-S^+ amyloid-βplaques and 4G8^+ amyloid-βplaques were determined by examining four to six coronal sections per mouse at 150-μm intervals over an area covering both the hippocampal and cortical (including entorhinal and cingulate cortex) regions. […]

[2] = tested on: MΦ^BM; assay: Macrophage cell length measurement; format: cell-based, mouse; conditions: GA treatment (FIG. 16A-16B)
Protocol: A set of three Stealth OPN siRNAs made up of 25-bp duplex oligoribonucleotides each were used with sequences corresponding to the sense and antisense strands of OPN (Invitrogen). Equal amounts (100 nM each) of siRNAs were mixed and diluted in OptiMEM (Gibco) to finalconcentration of 100nmol/L, then transiently transfected into MΦ^BM using Lipofectamine® RNAiMAX Transfection Reagent (Invitrogen), per manufacturer's protocol. Control macrophages were transfected with Stealth RNAi™ siRNA Negative Control. MΦ^BM were incubated for 48 hours after transfection, and were used for subsequent experiments.
The long and short axes of cells were manually measured in μm from microscopic images (McWhorter et al., Proceedings of the National Academy of Sciences of the U.S. Pat. No. 2,013,110:17253-17258) using length tools in the Axiovision Rel. 4.8 software package. At least 100 cells were examined in each experiment where individual cells were assayed by microscopy.
Macrophages can acquire distinct phenotypes and biological functions depending on their microenvironment. Past studies reported that OPN promotes macrophages to switch to the anti-inflammatory M2 phenotype. The possible role of OPN in macrophage polarization towards an anti-inflammatory phenotype, which has been associated with elongated cell shape was explored. […]

glatiramer acetate [GA]
6E10+-Aβ plaque burden compared with PBS controls [1]: substantial reduction | cell length increase [2]: 1.3 fold

Source: US11779600B2, “Methods of treating or preventing alzheimer's disease and associated conditions” (CEDARS-SINAI MEDICAL CENTER, priority 2016, dated 2023)
